Consider 24 molecules from ChEMBL document CHEMBL5518159, “Thiazole-based analogues as potential antibacterial agents against methicillin-resistant Staphylococcus aureus (MRSA) and their SAR elucidation” (Eur J Med Chem, 2023).

Molecules are shown by their SMILES. Values after ≈ are worked out from the molar mass of the structure shown.

Format in all cases: functional
For experiment [1], the system named is Staphylococcus aureus. The experiment in a line: Antimicrobial activity against Methicillin-resistant Staphylococcus aureus ATCC 43300 assessed as bacterial growth inhibition incubated for 18 hrs by broth micro-dilution method.
The test system of experiment [2] is Staphylococcus aureus. The experiment in a line: Antibacterial activity against Methicillin-sensitive Staphylococcus aureus ATCC 25923 assessed as reduction in microbial growth by CLSI based broth microdilution method. In general terms: In broth dilution the organism is exposed to a series of concentrations in liquid medium.
For experiment [3], the system named is Staphylococcus aureus. Briefly: Antibacterial activity against Methicillin-sensitive Staphylococcus aureus ATCC 25923 assessed as reduction in bacterial growth incubated for 24 hrs by CLSI based broth microdilution method.
The subject of experiment [4] is Staphylococcus aureus. The experiment in a line: Antibacterial activity against Methicillin-resistant Staphylococcus aureus ATCC 43300 assessed as reduction in bacterial growth measured for 24 hrs by CLSI based broth microdilution method.
In experiment [5] the test system is Staphylococcus aureus. Briefly: Antibacterial activity against methicillin-resistant Staphylococcus aureus ATCC 43300 assessed as reduction in bacterial growth by CLSI protocol based broth microdilution method.
The subject of experiment [6] is Staphylococcus aureus. Briefly: Antibacterial activity against methicillin-resistant Staphylococcus aureus ATCC 43300 assessed as bacterial growth inhibition incubated for 24 hrs by broth dilution method.
The test system of experiment [7] is Staphylococcus aureus. Briefly: Antibacterial activity against methicillin-resistant Staphylococcus aureus ATCC 33592 assessed as reduction in microbial growth incubated for 16 to 20 hrs by CLSI based two-fold serial dilution method. Particulars: time 16-20 hrs.
In experiment [8] the test system is Staphylococcus aureus. The experiment in a line: Antibacterial activity against Methicillin-resistant Staphylococcus aureus assessed as reduction of microbial growth by Muller Hinton broth based dilution assay.
For experiment [9], the system named is Staphylococcus aureus. Briefly: Antibacterial activity against methicillin-resistant Staphylococcus aureus assessed as reduction in microbial growth by CLSI based broth microdilution method.
Experiment [10] deals with Staphylococcus aureus. Briefly: Antibacterial activity against clinical isolate Methicillin resistant Staphylococcus aureus 2658 RCMB assessed as reduction in microbial growth incubated for 16 to 24 hrs by CLSI-based Muller Hinton broth based microdilution method. The conditions noted are these: time 16-24 hrs.
Experiment [11] concerns Staphylococcus aureus. Briefly: Antibacterial activity against Methicillin-resistant Staphylococcus aureus AUMC 261 assessed as bacterial growth inhibition incubated for 24 hrs by broth microdilution analysis.
In experiment [12] the test system is Staphylococcus aureus. The experiment in a line: Antibacterial activity against Methicillin-resistant Staphylococcus aureus […] assessed as reduction in microbial growth incubated for 18 to 24 hrs by broth micro-dilution method. Particulars: time 18-24 hrs.
The test system of experiment [13] is Escherichia coli. Briefly: Antibiofilm activity against Escherichia coli ATCC 25922 assessed as reduction in biofilm formation at 50 uM incubated for 24 hrs by crystal violet staining based analysis relative to control. Details: scale not given: the % may be the effect or the level left.
In experiment [14] the test system is Escherichia coli. The experiment in a line: Antibacterial activity against Escherichia coli ATCC 25922 assessed as reduction in bacterial growth incubated for 18 to 24 hrs by broth microdilution method. The conditions noted are these: time 18-24 hrs.
For experiment [15], the system named is Staphylococcus aureus. Briefly: Antibacterial activity against methicillin-resistant Staphylococcus aureus assessed as inhibition of bacterial growth measured after 24 hrs by broth micro-dilution method.
Experiment [16] deals with Staphylococcus aureus. Briefly: Antibacterial activity against vancomycin-resistant Staphylococcus aureus assessed as bacterial growth inhibition incubated for 18 to 24 hrs by CLSI-based microdilution method. The conditions noted are these: time 18-24 hrs.

`N#C/C(C(=O)NCc1ccco1)=C1/SC(Cc2ccc(Cl)cc2)C(=O)N1c1ccccc1` (stereo not drawn): the MIC in the experiment on Staphylococcus aureus [1] amounted to 4 µg/mL (≈ 8.62 µM).
As to `CC(=O)c1sc(-c2cccnc2)nc1C`, in the experiment with Staphylococcus aureus [2], the MIC90 turned out to be 4 µg/mL. For the same molecule, the MIC50 in the experiment on Staphylococcus aureus [3] worked out at 2 µg/mL (≈ 9.16 µM); in the experiment on Staphylococcus aureus [4], 4 µg/mL (≈ 18.3 µM).
Regarding `O=C1CSC(c2ccc([N+](=O)[O-])cc2)N1c1nc2ccc(OC(F)(F)F)cc2s1` (stereo not drawn), the MIC with Staphylococcus aureus [5] is 250 µg/mL (≈ 566 µM). The MBC in the experiment on Staphylococcus aureus [6] was 120 µg/mL (≈ 272 µM).
On to `O=C1CSC(c2cccc(Cl)c2Cl)N1c1nc2ccc(OC(F)(F)F)cc2s1` (stereo not drawn), for which the MIC in the experiment on Staphylococcus aureus [5] is 250 µg/mL (≈ 537 µM). Besides, the MBC with Staphylococcus aureus [6] is 120 µg/mL (≈ 258 µM).
For the molecule `O=C1CSC(c2c(F)cccc2F)N1c1nc2ccc(OC(F)(F)F)cc2s1` (stereo not drawn), the MIC with Staphylococcus aureus [5] came out at 250 µg/mL (≈ 578 µM). The MBC in the experiment with Staphylococcus aureus [6] came to 120 µg/mL (≈ 278 µM).
`O=C1CSC(c2ccc(O)cc2)N1c1nc2ccc(OC(F)(F)F)cc2s1` (stereo not drawn): the minimum inhibitory concentration (MIC) in the experiment on Staphylococcus aureus [5] worked out at 250 µg/mL (≈ 606 µM). Moreover, in the experiment with Staphylococcus aureus [6], the MBC came out at 120 µg/mL (≈ 291 µM).
For `O=C1CSC(c2ccc(Cl)cc2Cl)N1c1nc2ccc(OC(F)(F)F)cc2s1` (stereo not drawn), the minimum inhibitory concentration (MIC) in the experiment on Staphylococcus aureus [5] is 250 µg/mL (≈ 537 µM). The minimal bactericidal concentration (MBC) in the experiment on Staphylococcus aureus [6] was 120 µg/mL (≈ 258 µM).
With `CCn1cc(-c2csc(N)n2)c(=O)c2cc(F)c(N3CCN(Cc4ccc(Cl)cc4)CC3)cc21`, the minimum inhibitory concentration (MIC) in the experiment on Staphylococcus aureus [7] was found to be 8 µg/mL.
Regarding `CCn1cc(-c2csc(N)n2)c(=O)c2cc(F)c(N3CCN(Cc4ccc(Cl)cc4Cl)CC3)cc21`, in the experiment on Staphylococcus aureus [7], the MIC was determined as 8 µg/mL.
`O=C1CSC(c2c(Cl)cccc2Cl)N1c1nc2ccc(OC(F)(F)F)cc2s1` (stereo not drawn): the MIC in the experiment on Staphylococcus aureus [5] came to 250 µg/mL (≈ 537 µM). For the same molecule, the MBC in the experiment with Staphylococcus aureus [6] is 120 µg/mL (≈ 258 µM).
`O=C1CSC(c2ccc(F)cc2)N1c1nc2ccc(OC(F)(F)F)cc2s1` (stereo not drawn): the MIC in the experiment with Staphylococcus aureus [5] stood at 250 µg/mL (≈ 603 µM). In addition, the minimum bactericidal concentration (MBC) in the experiment with Staphylococcus aureus [6] came to 120 µg/mL (≈ 290 µM).
`CCn1cc(-c2csc(N)n2)c(=O)c2cc(F)c(N3CCN(Cc4ccc(Cl)c(Cl)c4)CC3)cc21`: the MIC in the experiment on Staphylococcus aureus [7] stood at 8 µg/mL.
Take `O=C1CSC(c2ccc(Cl)cc2)N1c1nc2ccc(OC(F)(F)F)cc2s1` (stereo not drawn): the MIC in the experiment with Staphylococcus aureus [5] was 250 µg/mL (≈ 580 µM). In addition, the MBC in the experiment with Staphylococcus aureus [6] was found to be 120 µg/mL (≈ 279 µM).
The matching figures for `O=C1CSC(c2c(F)cccc2Cl)N1c1nc2ccc(OC(F)(F)F)cc2s1` (stereo not drawn): 250 µg/mL (≈ 557 µM) and 120 µg/mL (≈ 267 µM).
With `COc1ccc(/C=C(\Oc2ccc3c(CN(CCO)CCO)cc(=O)oc3c2)C(=O)c2nccs2)cc1`, in the experiment on Staphylococcus aureus [8], the MIC is 2 µg/mL.
Consider `O=C(/C(=C/c1ccccc1Cl)n1cnc2cc(Cl)ccc2c1=O)c1nccs1`, for which the minimal inhibitory concentration (MIC) in the experiment with Staphylococcus aureus [9] worked out at 2 µg/mL.
As for `Cc1nc(-c2ccc3ccccc3c2)sc1-c1nnc(NC(=N)N)o1`, in the experiment with Staphylococcus aureus [10], the MIC came out at 1.9 µg/mL.
In the case of `O=C(O)c1cn(C2CC2)c2cc(N3CCN(C(=O)CN4C(=O)S/C(=C\c5ccccc5)C4=O)CC3)c(F)cc2c1=O`, the MIC in the experiment with Staphylococcus aureus [11] is 2.88 µg/mL (≈ 4.99 µM).
Take `CCOC1=NC(=N/N=C2\C(=O)Nc3ccc(Br)cc32)/S/C1=N/Nc1ccc([N+](=O)[O-])cc1`: the minimum inhibitory concentration (MIC) with Staphylococcus aureus [12] was determined as 8 µg/mL; with Escherichia coli [14], 8 µg/mL (≈ 15.5 µM). The Activity in the experiment with Escherichia coli [13] was 90%.
As for `Cc1cnc(/C=c2\[nH]c(=O)/c(=C\c3ccc(Br)cc3)s2)s1`, the MIC in the experiment with Staphylococcus aureus [15] amounted to 40 µg/mL (≈ 105 µM).
For the molecule `O=C(O)CCN(c1ccc(Nc2ccccc2)cc1)c1nc(-c2ccc(Cl)cc2)cs1`, the MIC in the experiment with Staphylococcus aureus [16] came out at 1 µg/mL (≈ 2.22 µM).
For `Cc1ccc(C2SCC(=O)N2c2nc3ccc(OC(F)(F)F)cc3s2)cc1` (stereo not drawn), the MIC in the experiment on Staphylococcus aureus [5] was determined as 250 µg/mL (≈ 609 µM). Further, in the experiment on Staphylococcus aureus [6], the MBC stood at 120 µg/mL (≈ 292 µM).
Consider `Cc1cnc(/C=c2\[nH]c(=O)/c(=C\c3cccc(Br)c3)s2)s1`, for which the MIC with Staphylococcus aureus [15] was determined as 40 µg/mL (≈ 105 µM).
Regarding `O=C(O)c1cn(C2CC2)c2cc(N3CCN(C(=O)CN4C(=O)S/C(=C\c5ccoc5)C4=O)CC3)c(F)cc2c1=O`, the minimal inhibitory concentration (MIC) in the experiment on Staphylococcus aureus [11] stood at 2.88 µg/mL (≈ 5.08 µM).

The term MIC denotes the lowest concentration found to suppress growth. Broadly, the MIC90 is an inhibitory concentration at the 90% level, which refers to growth in some studies and to a panel of isolates in others. In general, MIC50 refers to the lowest concentration that inhibits either 50% of growth or 50% of the strains tested, depending on the study. In general, MBC refers to the smallest concentration meeting the test's criterion for killing.
